Test results reported in patent US20030207843A1, “Treatment of drug-resistant human immunodeficiency virus infection” (priority 1999, published 2003).
Where two headings read alike, the source gives them in different places.

Legend:
Assay type in all cases: cell-based
[1] = test system: HIV-1LAI W88G; experiment: p24 reduction assay in MT-2 cells, W88G; conditions: for EC50: W88G
Description: (§1) Cells. MT-2 cells (AIDS Research and Reference Reagent Program, National Institute of Allergy and Infectious Diseases, National Institutes of Health) were maintained in RPMI 1640 supplemented with 10% fetal bovine serum (FBS; JRH Biosciences, Lenexa, Kans.), 10 mM HEPES buffer, 50 IU/ml penicillin and 50 μg/ml streptomycin.
(§2) Antiviral Susceptibility Assays. The antiviral activity of each compound was determined by inoculating MT-2 cells with HIV-1LAI at a multiplicity of infection (MOI) of 0.01 TCID50/cell, followed by incubation in the presence of three-fold serial drug dilutions (3 wells per dilution) (see Mellors, et. al., Antimicrob. Agents Chemother. 39:1087-1092). Five or seven days after infection, culture supernatants were harvested, lysed with 0.5% triton-X 100 and assayed for p24 antigen concentration using a commercial ELISA assay (DuPont, NEN Products, Wilmington, Del.). The antiviral activity of the compounds is expressed as the IC50, which is the concentration required to inhibit 50% of p24 antigen production. The fold-resistance of a test virus is calculated by dividing the IC50 of the test virus by the IC50 of the HIV-1LAI control virus.
(§3) Generation of Mutant Recombinant HIV-1. HIV-1 containing the desired mutations were generated by oligonucleotide directed mutagenesis (Altered Sites II, Promega) as previously described (Mellors, et. al., Molecular Pharm. 41:446-451). After mutagenesis, mutant RT was subcloned into the pxxHIV-1LAI cloning vector using the silent XmaI and XbaI restriction sites located at the 5′ and 3′ ends of RT. Clones were DNA sequenced to verify the presence of the desired mutation(s) and electroporated into MT-2 cells as described above to generate infectious mutant recombinant HIV-1.
(§4) Mutant RT was generated via oligonucleotide-directed mutagenesis and ligated into the pXXHIV-1LAI cloning vector. Cloning was facilitated by the presence of two silent restriction sites at the 5′ and 3′ ends (Xma1 and Xba1, respectively) of pXXHIV-1LAI RT. Infectious mutant recombinant HIV-1 was generated by electroporating MT-2 cells with mutated pXXHIV-1LAI clones. The presence of the desired mutations was verified by DNA sequencing.
Invention compounds were also evaluated against a panel of HIV-1LAI derived recombinants resistant to PFA and the PFA invention compounds, as shown in Table 7.

[2] = test system: HIV-1LAI S117T; experiment: p24 reduction assay in MT-2 cells, S117T
Description: as §1, §2, §3, §4
DNA sequencing identified two mutations in RT: S117T and L214F.
(§5) Recombinant viruses containing the mutations selected by invention compounds were also evaluated for their susceptibility to AZT, as shown in Table 8.

[3] = test system: HIV-1LAI M164I/L214F; experiment: p24 reduction assay in MT-2 cells, M164I/L214F
Description: as §1, §2, §3, §4
DNA sequencing of the RT gene (amino acid (AA) 1 to 350) from MB-PFA resistant virus identified three mutations: V75L, M164I and L214F. Recombinant viruses encoding the V75L, M164I and L214F mutations were constructed and tested for susceptibility to MB-PFA.
as §5

[4] = test system: HIV-1LAI W88G/L214F; experiment: p24 reduction assay in MT-2 cells, W88G/L214F
Description: as §1, §2, §3, §4
EB-PFA resistant virus was selected a second time after 15 passages. This virus also contained the mutations W88G and L214F.
as §5

[5] = test system: HIV-1LAI L74V; experiment: p24 reduction assay in MT-2 cells, L74V; conditions: for EC50: L74V; for Fold-resistance: L74V relative to wild type virus
Description: as §1, §2, §3, §4
The multi-drug resistant HIV-1 strains, 11163p1 and 11588p1, are human clinical isolates having the RT mutations indicated. HIV-1 strains treated with the lipid analogs of the present invention include wild type, e.g., xxLAI, and the like, single mutation, e.g., xxLAI MI 84V (resistant to 3TC), xxLAI L74V (resistant to ddI and ddC), xxLAI K65R (resistant to ddI, ddC, DAPD, DXG, tenofovir, and adefovir), xxLAI T215Y (resistant to AZT), and the like, double mutations, e.g., xxLAI M41 L/T215Y (resistant to AZT), xxLAI MI 84V/T215Y (resistant to 3TC and AZT), and the like, and multiple mutations, e.g., xxLAI 4XAZT ((D67N, K70R, T215Y, K219Q) resistant to AZT)), xxLAI 4XAZT/M184V ((D67N, K70R, M 184V, T215Y, K219Q) resistant to AZT and 3TC), xxLAI M5456-12 (AZT+NNRTI resistant: D67N, K70R, K103N, T215Y), xxLAI G2-3g (AZT/3TC co-resistant: M41L, D67N, M184V, H208Y, L210W, R211K, L214F, T215Y, 1293V, E297A), 11163 (multinucleoside resistant virsus: M41L, A62V, V751, F77L, K103N, F116Y, Q151M, Y181C, M184V), 11588 (multinucleoside resistant virsus: A62V, K65R, K70R, V751, F77L, F116Y, Q151M, M184V, K219Q), and the like.

[6] = test system: panel of drug resistant HIV-1 viruses; experiment: p24 reduction assay, panel of drug resistant HIV-1 viruses (summary); conditions: Human immunodeficiency virus 1, read-out: EC50 values (range over strains)
Description: The μM concentration required to produce 50% inhibition of replication of the drug-resistant strain of HIV (EC50) was determined as shown in Table 1. Drug effects were measured by assaying p24 (a viral protein) in the culture medium.

[7] = Table 7, W88G relative to wild type virus

SMILES: Cc1cn([C@H]2C[C@H](N=[N+]=[N-])[C@@H](CO)O2)c(=O)[nH]c1=O [AZT, 3′-Azido-3′-deoxythymidine]
- EC50 ([1]; Human immunodeficiency virus 1, MT2, Table 8, read-out: AZT EC50): 0.019 ± 0.013 µM
- Fold resistance ([1]; Table 8, W88G relative to wild type virus): 0.9
- EC50 ([2]; Human immunodeficiency virus 1, MT2, Table 8, S117T, read-out: AZT EC50): 0.017 ± 0.007 µM
- Fold resistance ([2]; Table 8, S117T relative to wild type virus): 0.8
- EC50 ([3]; Human immunodeficiency virus 1, MT2, Table 8, M164I/L214F, read-out: AZT EC50): 0.008 ± 0.003 µM
- Fold resistance ([3]; Table 8, M164I/L214F relative to wild type virus): 0.4
- EC50 ([4]; Human immunodeficiency virus 1, MT2, Table 8, W88G/L214F, read-out: AZT EC50): 0.015 ± 0.015 µM
- Fold resistance ([4]; Table 8, W88G/L214F relative to wild type virus): 0.7

SMILES: CCCCCCCCCCCCCCCCCCOC[C@@H](O)COP(=O)(O)C(=O)O [B-PFA, 1-O-octadecyl-sn-glycero-3-PFA]
- EC50 ([5]; Table 1, MOI 0.01): 4.25 µM
- Fold-resistance ([5]; Table 3): (2.5)
- EC50 ([5]; Table 3, mean ± SD): 4.45 ± 2.26 µM
- Fold-resistance [1, 7]: (>17.2)
- EC50 ([1]; Table 7, read-out: EC50): > 30 µM

SMILES: CCCCCCCCCCCCCCCCCCOC[C@H](COP(=O)(O)C(=O)O)OCC [EB-PFA, 1-O-octadecyl-2-O-ethyl-sn-glycero-3-PFA]
- EC50 ([5]; Table 1, MOI 0.01): 1.34 µM
- Fold-resistance ([5]; Table 3): (1.9)
- EC50 ([5]; Table 3, mean ± SD): 1.21 ± 0.85 µM
- Fold resistance ([1]; Example 6, recombinant virus encoding W88G): 9.4 fold
- Fold-resistance [1, 7]: 0.64 (7.6)
- EC50 ([1]; Table 7, read-out: EC50): 6.8 µM
- Fold resistance ([4]; Example 6, recombinant virus W88G plus L214F): 15.5 fold
- EC50 ([4]; Example 6, recombinant virus W88G plus L214F, read-out: EC50): 9.1 µM

SMILES: CCCCCCCCCCCCCCCCCCOC[C@H](COP(=O)(O)C(=O)O)OC [MB-PFA, 1-O-octadecyl-2-O-methyl-sn-glycero-3-PFA]
- EC50 ([5]; Table 1, MOI 0.01): 0.52 µM
- Fold-resistance ([5]; Table 3): (1.8)
- EC50 ([5]; Table 3, mean ± SD): 0.88 ± 0.63 µM
- Fold-resistance [1, 7]: 4.42 (7.6)
- EC50 ([1]; Table 7, read-out: EC50): 5.88 µM
- Fold resistance ([3]; Example 6, recombinant virus with M164I and L214F): 9.3 fold
- EC50 ([3]; Example 6, recombinant virus with M164I and L214F, read-out: EC50): 8.1 µM

SMILES: O=C(O)P(=O)(O)O [PFA, phosphonoformate, reference compound]
- EC50 ([5]; Human immunodeficiency virus 1, MT2, Table 1, MOI 0.01): 37.4 µM
- EC50 ([5]; Human immunodeficiency virus 1, MT2, Table 3, mean ± SD): 32.7 ± 9 µM
- Fold-resistance ([5]; Table 3): (1.9)
- EC50 ([1]; Human immunodeficiency virus 1, MT2, Table 7, read-out: EC50): 152 µM
- Fold-resistance [1, 7]: 14.28 (11.7)
- Fold resistance ([1]; {}): 6.2 fold
- Fold resistance ([2]; {}): 4.7 fold
- EC50 [6]: 7.6 to 37.4 µM
